Several values for one entry are separate records, joined by “and”; a condition that tells them apart may be missing. Identical values can stand only once. Activity calls are given as the source filed them.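 Rule for the calls: active = compounds giving half or more protection of infected cells from virus-caused growth loss, again on retest; inactive = the rest.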
Test system: CEM cells HIV-1 protection, formazan growth assay
Assay: NCI AIDS Antiviral Assay
Details: for IC50: measured here: growth of uninfected CEM cells
In short: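 Protection of CEM cells against HIV-1 measured as cell growth via soluble formazan read-out, with five concentrations tested on both infected and uninfected cells; failure to protect may reflect toxicity.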

| Compound | EC50 | IC50 | outcome |
| --- | --- | --- | --- |
| N#C/C(=C/n1c(=S)[nH]c2ccc([N+](=O)[O-])cc21)c1ccc([N+](=O)[O-])cc1 | > 200 µM | 117 µM |  |
| Cc1ccc(S(=O)(=O)Nn2c(-c3ccccc3)c(C#N)c(-c3ccc(Cl)cc3)c(C#N)c2=O)cc1 | > 200 µM | 38.9 µM |  |
| COC(=O)/C(=C/c1c[nH]c2ccccc12)NC=O | > 200 µM | > 200 µM |  |
| Cc1cc(Cl)ccc1NC(=O)CC1SC(=Nc2ccccc2Cl)NC1=O (stereo not given) | > 89.1 µM | 43.7 µM |  |
| N#Cc1c(N2CCCC2)[nH]c(=O)n(-c2ccccc2)c1=S | > 200 µM | > 200 µM |  |
| Cc1ccc2c(c1)-c1c(C#N)c(N)nc(-c3ccccc3)c1CCS2(=O)=O | > 200 µM | 2.09 µM |  |
| COC(=O)C12CN(C)CC(C(=O)OC)(C1=O)C(c1ccccc1)OC2c1ccccc1 (stereo not given) |  |  | inactive |
| CNC(=S)NC1CCCCC1NC(=S)NC (stereo not given) | > 692 µM | > 692 µM |  |
| Cc1nnc(N=Nc2c(O)[nH]c3c(Cl)cc(Cl)cc23)n1N | > 16.6 µM | > 16.6 µM |  |
| N#Cc1nc(CCCN2C(=O)c3ccccc3C2=O)oc1N | > 200 µM | > 200 µM |  |
| CC[C@]1(c2ccc3c(c2)OCO3)C=[N+]([O-])O[C@H](OC2CCCC2(c2ccccc2)c2ccccc2)[C@@H]1OC(C)=O (stereo not given in full) | > 200 µM | 4.07 µM |  |
| C#CC1(O)CCC2C3CCc4cc(Oc5nc(F)nc(-c6c7ccccc7c7n6CCS7)n5)ccc4C3CC[C@@]21C (stereo not given in full) | > 200 µM | 11.2 µM |  |
| O=C(O/N=C1/CCC/C1=C\c1ccccc1)c1ccccc1 |  |  | inactive |
| N#Cc1[nH]c(=O)n(-c2ccccc2)c1N | > 200 µM | > 200 µM |  |
| CN(C)C(=S)SSC(=S)N(C)C | > 200 µM | 5.01 µM and 1.07 µM | inactive |
| CCN(CC)c1ccc(N=Nc2ccc(-c3nc4ccc[n+](C)c4s3)cc2)cc1 | > 7.08 µM | 4.79 µM |  |
| Brc1cc2c(cc1Br)CN(c1ccccc1)C2 |  |  | inactive |
| CC1=CC=C2c3ccccc3C=CN2C(=O)C1 | > 200 µM | 89.1 µM |  |
| CC(C)=CCC[C@@H](C)C1=C(O)C(N[C@H](C)c2ccccc2)=C(C)C(=O)C1=O | > 200 µM | 1.66 µM |  |
| C=C1SC(=Nc2cccc(OC)c2)N(c2nc(Cl)nc(Cl)n2)C1(C)C | > 112 µM | 20 µM |  |
| N/N=C(/c1ccccc1)c1cccc([N+](=O)[O-])c1 | > 200 µM | 166 µM |  |
| C=C(c1cc(C(=O)OC)c(OC)c(Br)c1C)c1cc(C(=O)OC)c(OC)c(Br)c1C | > 200 µM | 77.6 µM |  |

| Compound | EC50 | IC50 | outcome |
| --- | --- | --- | --- |
| CCC/C(Cl)=N/OC(=O)Nc1cc(C(F)(F)F)ccc1OC | > 200 µM | 3.39 µM |  |
| Cc1c(C#N)c2nnn(-c3ccccc3)c(=O)n2c1-c1ccccc1 | > 200 µM | 1.02 µM |  |
| CCC1C(=O)N(C)c2ccccc21 (stereo not given) | > 200 µM | 117 µM and 33.1 µM |  |
| O=Nc1c(NO)ccc2nn(-c3ccccc3)nc12 | > 20 µM | 1.32 µM |  |
| OC1CC2C=CCC(C1)C2 (stereo not given) |  |  | inactive |
| O=C1c2ccccc2C2(Br)C(=O)c3ccccc3C12 (stereo not given) |  |  | inactive |
| COc1ccc2c(C3(O)CCNCC3)c[nH]c2c1 |  |  | inactive |
| Cc1ccc(-c2cc(-c3ccco3)c(C#N)c(=O)n2C2OC(OC(=O)c3ccccc3)C(OC(=O)c3ccccc3)C2OC(=O)c2ccccc2)cc1 (stereo not given) | > 10.2 µM | > 10.2 µM |  |
| CC1(O)Cn2c(nc3nccnc32)S1 (stereo not given) | > 603 µM | 31.6 µM |  |
| O=C1NC(=O)C(Cc2ccccc2Cl)N1 (stereo not given) | > 200 µM | > 200 µM |  |
| CCc1c(C)c(C#N)c(=S)n(C2OC(COC(C)=O)C(OC(C)=O)C(OC(C)=O)C2OC(C)=O)c1C (stereo not given) | > 200 µM | > 200 µM |  |
| O=C(CC(=O)Nc1ccccc1)Nc1ccccc1 | > 102 µM | > 102 µM |  |
| C1OC1CN1CCN(CC2CO2)CC1 (stereo not given) |  |  | inactive |
| CCCCCCCCCCNC(=S)OC |  |  | inactive |
| COC(=O)c1cc(OC(C)=O)c2c(OC)ccc(OC)c2c1 |  |  | inactive |
| Cn1c2c(c3ccccc31)CCN(CCCN1CCN(c3ccccc3)CC1)C2=O | > 55 µM | 44.7 µM |  |
| COC(=O)[C@@]12OC[C@]34[C@H]([C@@H](O)[C@@H]1O)[C@@]1(C)CC(=O)C(O)=C(C)[C@@H]1C[C@H]3OC(=O)[C@H](OC(=O)/C=C(\C)C(C)C)[C@@H]24 | > 123 µM | 0.0389 µM |  |
| O=C(C=P(c1ccccc1)(c1ccccc1)c1ccccc1)CC(=S)CC(=O)C=P(c1ccccc1)(c1ccccc1)c1ccccc1 |  |  | inactive |
| COc1cc2c(cc1OCCCCCN1C(=O)c3cccc4cccc(c34)C1=O)N=C[C@@H]1CCCN1C2=O | > 2 µM | 1.1 µM |  |
| Cc1cc2c(c(C(=O)O)c1C)-c1cccc(F)c1C2=O |  |  | inactive |
| COc1ccccc1C1=NC(C)(C)CO1 | > 1230 µM | > 1230 µM |  |
| CC(NC(=O)C(N)CC(=O)O)C(=O)OC12CC3CC(CC(C3)C1)C2 (stereo not given) | > 200 µM | > 200 µM |  |

| Compound | EC50 | IC50 | outcome |
| --- | --- | --- | --- |
| CCOC(=O)CCC(NC(=O)c1ccc(Nc2nc3ccccc3nc2C(=O)OCC)cc1)C(=O)OCC (stereo not given) | > 138 µM | 85.1 µM |  |
| C/C(CC(=O)NCCc1ccccc1)=N\NS(=O)(=O)c1ccc(C)cc1 | > 347 µM | 339 µM |  |
| COc1nc2c(nc(N)n2C2OC(CO)C(O)C(O)C2O)c(=O)[nH]1 (stereo not given) |  |  | inactive |
| CC1CCCC(C(=O)/C(=C/c2cccc(Cl)c2)C(=O)C(=O)O)C1 (stereo not given) | > 15.5 µM | > 15.5 µM |  |
| CC(=Nc1ccc([N+](=O)[O-])cc1)c1ccc(O)cc1 | > 200 µM | 10.7 µM |  |
| O=C1CC(c2ccccc2)NCN1 (stereo not given) |  |  | inactive |
| O=C(O)CN(CC(=O)O)C(C(=O)O)c1ccccc1 (stereo not given) | > 200 µM | > 200 µM |  |
| COC(=O)c1ccc(C)cc1CC1Cc2cc(C)ccc2C1=O (stereo not given) | > 200 µM | > 200 µM |  |
| C=CC[C@]12CC(OC)C(OC)CC1(OC)O[C@@H](c1cc(OC)c(OC)c(OC)c1)[C@H]2C (stereo not given in full) | > 200 µM | 155 µM |  |
| COC(=O)C(C(=O)C(N)=O)c1csc(-n2nc(-c3ccccc3)cc2-c2ccccc2)n1 (stereo not given) | > 61.7 µM | 53.7 µM |  |
| O=c1[nH]cnc2cccc(Cl)c12 | > 200 µM | > 200 µM |  |
| CC(=O)Nc1cccc(S(=O)(=O)c2cccc(NC(=O)c3ccccc3SC(=O)CCCC[n+]3ccccc3)c2)c1 | 17.8 µM | > 200 µM |  |
| CCCCCCN(CCCCCC)/N=C/c1c2c(O)c3c(O)c(C)c4c(c3c1O)C(=O)C(C)(O/C=C/C(OC)C(C)C(OC(C)=O)C(C)C(O)C(C)C(O)C(C)/C=C/C=C(C)C(=O)N2)O4 (stereo not given) |  |  | inactive |
| O=c1[nH]c(=O)n([C@H]2CCCO2)cc1F | > 631 µM | 102 µM |  |
| COc1cc2c3c(c1OC)-c1[nH]c4ccccc4c1C1CCCN(CC2)C31 (stereo not given) | > 138 µM | 15.1 µM |  |
| C1=Cc2ccccc2C(c2ccccc2)=NC1 | > 229 µM | 145 µM |  |
| CCc1c(C)c(SC)n(C)c(=O)c1C#N | > 200 µM | 69.2 µM |  |
| O=C1COC(c2ccccc2)C(c2ccccc2)(c2ccccc2)O1 (stereo not given) | > 15.8 µM | > 15.8 µM |  |
| C/C=C1/[C@@H]2C[C@H]3C4=Nc5ccccc5C4(C4[C@@H](O)ON3[C@@H]14)[C@@H]2C(=O)OC | > 200 µM | > 200 µM |  |
| CN(C)CCC(CCN(C)C)=NOC(=O)c1ccccc1 | > 692 µM | > 692 µM |  |

From PubChem BioAssay AID179 (DTP/NCI, 2004)
